Marks after values point to notes of the source that are not given here. Bounds are passed on as bounds.

15 compounds from patent US7790762B2, “Compounds and methods for thiol-containing compound efflux and cancer treatment” (National Jewish Health, priority 2002, dated 2010) can be followed below.

Experiment [1] has as its system HL-60 cells. Nature of the experiment: Cytotoxicity as LDH release in HL-60 cells. The note with it: for LDH release, % of control at 25 µM / LDH release, % of control at 50 µM: Homo sapiens, read-out: LDH rel. % con.; for LDH release, % of control at 25 µM: HL-60, 25 μM; for LDH release, % of control at 25 µM / LDH rel. % con. / LDH release, % of control at 50 µM: 48 hours treatment; for LDH rel. % con. / LDH release, % of control at 50 µM: HL-60, 50 μM. The format is cell-based, human. The protocol: (§1) Cell lines and culture conditions. Human lung epithelial cancer (A549), human leukemia HL-60 and human prostate (PC-3) tumor cells were purchased from ATCC (Manassas, Va.). A549 and PC-3 cells were grown in Ham's F12 medium (F12) and Kaighn's modification of Ham's F12 medium (F12K) with 2 mM L-glutamine (ATCC), respectively, supplemented with 10% fetal bovine serum (FBS) and 5% pen/strep (10,000 unit, Cellgro). HL-60 cells were grown in Iscove's modified Dulbecco's medium with 4 mM L-glutamine (ATCC) supplemented with 20% FBS and 5% pen/strep. Cell were grown in T-75 flask at 37° C. and 5% CO2 air atmosphere and in 24-well plates for GSH levels and LDH release measurements.
(§2) Assessment of cytotoxicity. In one exemplary method, membrane integrity of A549, HL-60 and PC-3 cells was used as an index of drug-induced cytotoxicity, and was assessed by monitoring the release of cytosolic lactate dehydrogenase (LDH). LDH activity was measured in the culture medium and cell lysates (50 mM HEPES, Triton X-100 0.5%, pH 7) using a plate reader format as previously described (41). Briefly, 5 μl of cell culture supernatant and lysates were incubated with 0.24 mM NADH in a Tris/NaCl pH 7.2 buffer in 96-well plates for 5 min at 25° C. The reaction was started by the addition of 9.8 mM pyruvate and the consumption of NADH followed at 340 nm for 5 min at 30° C. Percent LDH release was calculated by the following: (supernatant LDH/supernatant LDH+lysate LDH)×100.
On the technique in general: LDH in the medium is a marker of cell lysis.

The subject of another experiment is epithelial cells. Nature of the experiment: Effects of compounds on extracellular GSH transport (Table 3). The format is cell-based.
Experiment [2] has as its system PC-3 cells. Kind of experiment: Cytotoxicity as LDH release in PC-3 cells. The class given is cell-based, human. The note with it: PC-3, 50 μM, 48 hours treatment; for LDH release, % of control at 50 µM: Homo sapiens, read-out: LDH rel. % con. The protocol:
as §1, §2

In experiment [3] the test system is PC-3 cells. Nature of the experiment: Intracellular GSH levels by HPLC-EC in PC-3 cells. The class given is cell-based, human. The note with it: 24 hours treatment; for activity at 25 µM: Homo sapiens, read-out: Int. GSH % con. The protocol: as §1
(§3) Intracellular levels of GSH. Intracellular GSH levels can be determined by HPLC-EC. Cultured cells from 24-well plates were washed once with 1 ml of PBS and then re-suspended in 0.5 ml of distilled water with 40 μM of digitonin (2 mM stock solution in DMSO) for 30 min at room temperature. Then, 50 μl of 10% meta-phosphoric acid were added (1% final concentration), the samples were sonicated for 2 min, centrifuged at 20,000 g for 10 min, and 0.2 ml of supernatant placed in vials for HPLC analysis. […] The flow rate was […]. The retention time for GSH in these conditions was 7.5 min. The HPLC instrument was from ESA, Inc. (Chelmsford, Mass.), equipped with an autosampler (model 540) and a Coul array detector (model 5600A). The potential applied was +0.75 V vs. H/Pd electrode, and the injection volume 5 μl.

Experiment [4] relates to HL-60 cells. Nature of the experiment: Intracellular GSH levels by HPLC-EC in HL-60 cells. The class given is cell-based, human. The note with it: for activity at 25 µM: HL-60, 25 μM; for effect on intracellular GSH (words): HL-60 cells. The protocol: as §1, §3
For experiment [5], the system named is A549 cells. Kind of experiment: Intracellular GSH levels by HPLC-EC in A549 cells. The class given is cell-based, human. The note with it: for activity at 50 µM: A549, 50 μM. The protocol:
as §1, §3

Experiment [6] has as its system A549 cells. Nature of the experiment: Cytotoxicity as LDH release in A549 cells. The class given is cell-based, human. The note with it: 48 hours treatment; for LDH rel. % con. / LDH release, % of control at 75 µM: A549, 75 μM. The protocol: as §1, §2
Experiment [7] deals with HL-60 cells. Kind of experiment: Cellular superoxide by flow cytometry with hydroethidine in HL-60 cells. The note with it: HL-60 cells, pre-treated 30 μM for 2 hours (FIG. 21B). The class given is cell-based, human. The protocol: Flow cytometry. In one exemplary method, cellular superoxide (O2^−) was measured by flow cytometry analysis using hydroethidine (HE) (30). Untreated and treated HL-60 cells (approximately 10^6) were exposed to HE (1 μM from 1 mM stock solutions in DMSO) for 30 min, then were centrifuged at 3,500 g for 15 min, and washed once with 1 ml ice-cold PBS. Cells were re-suspended in 0.5 ml ice-cold PBS, and HE oxidation product, i.e., ethidium bromide (EB), analyzed within 30 min using the red channel (PE) of a FACSCalibur flow cytometer from Becton Dickinson Biosciences (San Jose, Calif.). The total number of cell counts was 25,000.

[8] abbreviates: Homo sapiens, 24 hours treatment, read-out: Int. GSH % con.
[9] abbreviates: Epithelial cell, read-out: % Increase Over Control (extracellular GSH).
Where [10] appears, read: Epithelial cell, 100 μM, read-out: % Increase Over Control (extracellular GSH).
Where [11] appears, read: HL-60, 75 μM, 24 hours treatment.
Where [12] appears, read: A549, 75 μM, 24 hours treatment.
The mark [13] stands for this setting: Homo sapiens, read-out: LDH rel. % con.

For `COc1ccc(CCN(C)CCCC(C#N)(c2ccc(OC)c(OC)c2)C(C)C)cc1OC` (racemic) [Verapamil, (±)-verapamil, reference compound], in the experiment on HL-60 cells [1], the LDH release, % of control at 25 µM came to 125%. In the experiment with epithelial cells (Epithelial cell, 10 μM, read-out: % Increase Over Control (extracellular GSH)), the activation at 10 µM worked out at 113%. The LDH release, % of control at 50 µM amounted to 93% in the experiment on PC-3 cells [2] and 130% in the experiment on A549 cells [6] (Homo sapiens, A549, 50 μM, read-out: LDH rel. % con.). For the same compound, the activity at 25 µM in the experiment on PC-3 cells [3] (PC-3, 25 μM) turned out to be 72%; in the experiment on HL-60 cells [4] (setting [8]) it was 63%. Moreover, in the experiment on A549 cells [5] (setting [8]), the activity at 50 µM stood at 14%.
Consider `O=C(O)c1cc(S(=O)(=O)O)ccc1O` [5-Sulfosalicylic Acid], for which, in the experiment on epithelial cells (setting [9]), the activation at 50 µM worked out at 142%.
As to `COc1ccc2cc3[n+](cc2c1OC)CCc1cc2c(cc1-3)OCO2` [Berberine], in the experiment on epithelial cells (setting [10]), the activation at 100 µM came to 170%.
Same read-out and setting: in the case of `COc1ccc([C@@H]2Sc3ccccc3N(CCN(C)C)C(=O)[C@@H]2OC(C)=O)cc1` [Diltiazem, reference compound] it was 119%; in that of `COc1ccccc1C(=O)O` [Methylsalicylic Acid], 169%.
Take `CC[n+]1ccccc1-c1c2nc(c(-c3cccc[n+]3CC)c3ccc([n-]3)c(-c3cccc[n+]3CC)c3nc(c(-c4cccc[n+]4CC)c4ccc1[n-]4)C=C3)C=C2.[Mn+3]` [MnTE-2-PyP, Manganese(III) meso-tetrakis(N-ethylpyridinium-2-yl)porphyrin, reference compound]: the “effect on the toxicity of curcumin (25 μM), LDH release” value in the experiment with HL-60 cells [1] (HL-60 cells, 48 hours, compound 25 μM (FIG. 20A)) is given as “attenuated”. For the same compound, in the experiment with HL-60 cells [7], the “O2^− levels induced by curcumin after pre-treatment” value was “lower levels of O2^− were detected”.
In the case of `O=c1c(O)c(-c2cc(O)c(O)c(O)c2)oc2cc(O)cc(O)c12` [Myricetin], the “LDH rel. % con.” value in the experiment on HL-60 cells [1] was 139 % con; in the experiment with PC-3 cells [2], 93 % con; with A549 cells [6], 206 % con. Further, the “Int. GSH % con.” value came to 111 % con in the experiment on PC-3 cells [3] (PC-3, 50 μM); 27 % con with HL-60 cells [4] (setting [11]); 55 % con in the experiment on A549 cells [5] (setting [12]).
On to `O=C1CC(c2ccc(O)cc2)Oc2cc(O)cc(O)c21` (stereo not shown) [Naringenin, 4′,5,7-trihydroxyflavanone], for which the LDH release, % of control at 50 µM in the experiment on HL-60 cells [1] amounted to 95%; with PC-3 cells [2], 107%. The activity at 25 µM was 83% in the experiment on PC-3 cells [3] (PC-3, 25 μM) and 17% with A549 cells [5] (Homo sapiens, A549, 25 μM, 24 hours treatment, read-out: Int. GSH % con.). The activity at 75 µM with HL-60 cells [4] (Homo sapiens, HL-60, 75 μM, 24 hours treatment, read-out: Int. GSH % con.) stood at 73%. In addition, the LDH release, % of control at 75 µM in the experiment on A549 cells [6] (setting [13]) worked out at 130%.
Take `CCCOC(=O)c1cc(O)c(O)c(O)c1` [Propyl Gallate, 3,4,5-trihydroxy-benzoic acid propyl ester]: in the experiment with epithelial cells (setting [9]), the activation at 50 µM was 136%.
With `O=c1c(O)c(-c2ccc(O)c(O)c2)oc2cc(O)cc(O)c12` [Quercetin], the results for the “LDH rel. % con.” value with HL-60 cells [1], in the experiment with PC-3 cells [2] and with A549 cells [6] were 157 % con, 80 % con and 175 % con, respectively. Also, the “Int. GSH % con.” value is 95 % con with PC-3 cells [3] (PC-3, 25 μM); 94 % con in the experiment with HL-60 cells [4] (HL-60, 50 μM, 24 hours treatment); 36 % con with A549 cells [5] (A549, 25 μM, 24 hours treatment). For the same compound, the “Intracellular GSH levels, % compared to control” value in the experiment on A549 cells [5] (A549, 25 μM, 4 h) is listed as 51.0 ± 0.7%.
Regarding `Oc1ccc(C=Cc2cc(O)cc(O)c2)cc1` [Resveratrol], the LDH release, % of control at 50 µM in the experiment with HL-60 cells [1] turned out to be 143%; with PC-3 cells [2] it was 135%. In addition, the activity at 25 µM in the experiment with PC-3 cells [3] (PC-3, 25 μM) stood at 108%; in the experiment with HL-60 cells [4] (setting [8]), 61%. Moreover, in the experiment on HL-60 cells [4], the “effect on intracellular GSH (words)” value is recorded as “found effective in HL-60 cells”. Besides, the activity at 75 µM with A549 cells [5] (Homo sapiens, A549, 75 μM, 24 hours treatment, read-out: Int. GSH % con.) turned out to be 64%. In addition, in the experiment with A549 cells [6] (setting [13]), the LDH release, % of control at 75 µM came to 249%.
For `C=C(C)[C@H]1Cc2c(ccc3c2O[C@@H]2COc4cc(OC)c(OC)cc4[C@@H]2C3=O)O1` [Rotenone, reference compound], the LDH release, % of control at 25 µM with HL-60 cells [1] was determined as 421%. Also, in the experiment with PC-3 cells [2], the LDH release, % of control at 50 µM was found to be 180%. The activity at 25 µM is 74% in the experiment on PC-3 cells [3] (PC-3, 25 μM) and less than 5% in the experiment on HL-60 cells [4] (setting [8]). Moreover, the “effect on intracellular GSH (words)” value in the experiment with HL-60 cells [4] was “relatively effective for depleting GSH”. Further, the activity at 50 µM in the experiment with A549 cells [5] (setting [8]) worked out at 53%. For the same compound, in the experiment with A549 cells [6] (setting [13]), the LDH release, % of control at 75 µM is 170%.
With `C[C@@H]1O[C@@H](OC[C@H]2O[C@@H](Oc3c(-c4ccc(O)c(O)c4)oc4cc(O)cc(O)c4c3=O)[C@H](O)[C@@H](O)[C@@H]2O)[C@H](O)[C@H](O)[C@H]1O` [Rutin], the “LDH rel. % con.” value is listed as 98 % con with HL-60 cells [1], 95 % con in the experiment with PC-3 cells [2] and 187 % con in the experiment on A549 cells [6]. Also, in the experiment on epithelial cells (100 μM), the “% Increase Over Control (extracellular GSH)” value is 160 ^b %. Moreover, the “Int. GSH % con.” value was 98 % con with HL-60 cells [4] (setting [11]) and 86 % con in the experiment with A549 cells [5] (setting [12]).
As for `O=C(O)c1cc(/N=N/c2ccc(S(=O)(=O)Nc3ccccn3)cc2)ccc1O` [Sulfasalazine, reference compound], in the experiment on epithelial cells (setting [9]), the activation at 50 µM is 211%.
Consider `Nc1ccc(C(=O)O)c(O)c1` [p-Aminosalicylic Acid, 4-amino-2-hydroxybenzoic acid, reference compound], for which the activation at 100 µM in the experiment on epithelial cells (setting [10]) stood at 414%.
